Inhibition data for 14 compounds are collected here from US8076488B2, “Bicyclic urea derivatives useful in the treatment of cancer and other disorders” (Bayer Healthcare LLC, priority 2003, dated 2011).

In this test the target is T1, c-Raf kinase (Lck-activated c-Raf, Raf-1) (Homo sapiens, UniProt P04049).
T1 construct: GST-c-Raf (from amino acid 302 to amino acid 648); made in house; host or cells: Sf9 insect cells (baculovirus; co-infection with full-length Lck)
As to the kind of experiment: c-Raf (Raf-1) biochemical assay (radioactive filtermat assay, MEK-1 substrate). The settings on record: at 1 micromolar compound; 5 μM ATP, 32° C., 1 hour. As for the experimental part: Biological Tests c-Raf (Raf-1) Biochemical Assay Purification of Proteins Used in the Assay
The c-Raf biochemical assay was performed with a c-Raf enzyme that was activated (phosphorylated) by Lck kinase. Lck-activated c-Raf (Lck/c-Raf) was produced in Sf9 insect cells by co-infecting cells with baculoviruses expressing, under the control of the polyhedrin promoter, GST-c-Raf (from amino acid 302 to amino acid 648) and Lck (full-length). Both baculoviruses were used at the multiplicity of infection of 2.5 and the cells were harvested 48 hours post infection.
MEK-1 protein was produced in Sf9 insect cells by infecting cells with the baculovirus expressing GST-MEK-1 (full-length) fusion protein at the multiplicity of infection of 5 and harvesting the cells 48 hours post infection. Similar purification procedure was used for GST-c-Raf 302-648 and GST-MEK-1.
Transfected cells were suspended at 100 mg of wet cell biomass per mL in a buffer containing 10 mM sodium phosphate, 140 mM sodium chloride pH 7.3, 0.5% Triton X-100 and the protease inhibitor cocktail. The cells were disrupted with Polytron homogenizer and centrifuged 30,000 g for 30 minutes. The 30,000 g supernatant was applied onto GSH-Sepharose. The resin was washed with a buffer containing 50 mM Tris, pH 8.0, 150 mM NaCl and 0.01% Triton X-100. The GST-tagged proteins were eluted with a solution containing 100 mM Glutathione, 50 mM Tris, pH 8.0, 150 mM NaCl and 0.01% Triton X-100. The purified proteins were dialyzed into a buffer containing 20 mM Tris, pH 7.5, 150 mM NaCl and 20% Glycerol.
Biochemical Assay Protocol and Results
The compounds were serially diluted in DMSO using three-fold dilutions to stock concentrations ranging typically from 50 μM to 20 nM (final concentrations in the assay range from 1 μM to 0.4 nM). The c-Raf biochemical assay was performed as a radioactive filtermat assay in 96-well Costar polypropylene plates (Costar 3365). The plates were loaded with 75 μL solution containing 50 mM HEPES pH 7.5, 70 mM NaCl, 80 ng of Lck/c-Raf and 1 μg MEK-1. Subsequently, 2 μL of the serially diluted individual compounds were added to the reaction, prior to the addition of ATP. The reaction was initiated with 25 μL ATP solution containing 5 μM ATP and 0.3 μCi [33P]-ATP. The plates were sealed and incubated at 32° C. for 1 hour. The reaction was quenched with the addition of 50 μl of 4% Phosphoric Acid and harvested onto P30 filtermats (PerkinElmer) using a Wallac Tomtec Harvester. Filtermats were washed with 1% Phosphoric Acid first and deinonized H2O second. The filters were dried in a microwave, soaked in scintillation fluid and read in a Wallac 1205 Betaplate Counter (Wallac Inc., Atlanta, Ga., U.S.A.). The results were expressed as percent inhibition. % Inhibition=[[…]]×100 where • Tib=(counts per minute with inhibitor)−(background) • Ti=(counts per minute without inhibitor)−(background)

T1 sequence (P04049 302-648): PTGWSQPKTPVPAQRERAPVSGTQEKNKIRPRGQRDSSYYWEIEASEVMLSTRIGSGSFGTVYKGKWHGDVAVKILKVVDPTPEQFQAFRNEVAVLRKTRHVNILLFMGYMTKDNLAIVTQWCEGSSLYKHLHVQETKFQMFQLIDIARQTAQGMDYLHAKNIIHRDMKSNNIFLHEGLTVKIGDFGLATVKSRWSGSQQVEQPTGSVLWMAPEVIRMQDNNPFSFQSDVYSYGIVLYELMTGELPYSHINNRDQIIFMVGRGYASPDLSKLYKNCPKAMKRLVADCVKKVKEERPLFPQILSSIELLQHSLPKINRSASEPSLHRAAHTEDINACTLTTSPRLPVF

With `CNC(=O)c1cc(Oc2ccc(NC(=O)Nc3ccc4cn[nH]c4c3)cc2)ccn1` [Example 27], the inhibition at 1 µM was > 40%. Regarding `CNC(=O)c1cc(Oc2ccc(NC(=O)Nc3ccc4[nH]nnc4c3)cc2)ccn1` [Example 26], the inhibition at 1 µM is > 40%. The same measure for `NC(=O)c1cc(Oc2cc(F)c(NC(=O)Nc3ccc4c(c3)C(F)(F)OC(F)(F)O4)c(F)c2)ccn1` [Example 150, 4-[3,5-difluoro-4-({[(2,2,4,4-tetrafluoro-4H-1,3-benzodioxin-6-yl)amino]-carbonyl}amino)phenoxy]pyridine-2-carboxamide]: > 40%; for `NC(=O)c1cc(Oc2ccc(NC(=O)Nc3ccc4c(c3)CCC4)c(Cl)c2)ccn1` [Example 95]: > 40%. As to `CNC(=O)c1cc(Oc2ccc(NC(=O)Nc3ccc4c(c3)N(C(C)=O)CC4)cc2)ccn1` [Example 10], the inhibition at 1 µM is > 40%.

For `COC(=O)c1cc(Oc2cccc(NC(=O)Nc3ccc4c(cnn4C)c3)c2)ccn1` [Example 2, Methyl 4-[3-({[(1-methyl-1H-indazol-5-yl)amino]carbonyl}amino)phenoxy]-pyridine-2-carboxylate], the inhibition at 1 µM is > 40%. In the case of `CNC(=O)c1cc(Oc2ccc(NC(=O)Nc3ccc4c(c3)OC(F)(F)C(F)(F)O4)c(C(F)(F)F)c2)ccn1` [Example 64], the inhibition at 1 µM was > 40%.

On to `CNC(=O)c1cc(Oc2ccc(NC(=O)Nc3ccc4nccnc4c3)cc2)ccn1` [Example 17], for which the inhibition at 1 µM was > 40%. Turning to `Cn1ncc2cc(NC(=O)Nc3ccc(Oc4ccnc(C(=O)NCCCn5ccnc5)c4)cc3)ccc21` [Example 160], the inhibition at 1 µM is > 40%. Regarding `CNC(=O)c1cc(Oc2ccc(NC(=O)Nc3nc4c(F)cc(F)cc4s3)cc2)ccn1` [Example 103], the inhibition at 1 µM was > 40%. Turning to `CNC(=O)c1cc(COc2ccc(NC(=O)Nc3ccc4c(cnn4C)c3)cc2)ccn1` [Example 88], the inhibition at 1 µM was > 40%. For the compound `CNC(=O)c1cc(Oc2ccc(NC(=O)Nc3ccc4c(c3)C(F)(F)OC(F)(F)O4)cc2Cl)ccn1` [Example 115], the inhibition at 1 µM was > 40%. Turning to `O=C(Nc1ccc(Oc2ccnc(C(=O)NCCCn3ccnc3)c2)cc1)Nc1ccc2c(c1)OCCO2` [Example 158], the inhibition at 1 µM is > 40%.

For `CN(C)C(=O)CNC(=O)c1cc(Oc2ccc(NC(=O)Nc3ccc4c(cnn4C)c3)cc2)ccn1` [Example 100], the inhibition at 1 µM was > 40%.

By inhibition is commonly meant how much of the control response was suppressed.
